Measurements reported in US7015177B2, “Solid formulation” (priority 2001, dated 2006).

Tests used:
[1] = Thermal degradation of agrochemical; type: physicochemical
[2] = Solubility of agrochemical in solvent or melt; type: physicochemical; conditions: melt at about 65 to 70° C.

With `CC1(C)[C@H](C(=O)O[C@H](C#N)c2cccc(Oc3ccccc3)c2)[C@@H]1/C=C(\Cl)C(F)(F)F` (racemic) [lambda cyhalothrin] the “temperature above which it tends to degrade” value [1] was greater than 100 °C.

With `CCCCCCCCCCCCCCCCCC(=O)O` [stearic acid] the retardation of germination (seeds) was “no significant retardation of germination”.

In the case of `CN1COCN(Cc2cnc(Cl)s2)/C1=N\[N+](=O)[O-]` [thiamethoxam], the “solubility in melt of polyethylene glycol and methyl oleate” value [2] is reported as “readily soluble”.
